From ChEMBL document CHEMBL5380800, “Discovery of Small-Molecule Autophagy Inhibitors by Disrupting the Protein-Protein Interactions Involving Autophagy-Related 5” (J Med Chem, 2023)
Activity calls are given as the source filed them. No cut-off for these calls is given here.

Assays:
[1] = Inhibition of ATG5-ATG16L1 (unknown origin) protein protein interaction expressed in Escherichia coli BL21 (DE3) by HTRF method; design: species or system Homo sapiens
[2] = Inhibition of ATG5-TECAIR (unknown origin) protein protein interaction expressed in Escherichia coli BL21 (DE3) by HTRF method; design: species or system Homo sapiens
COS-7 [3] = assay: Inhibition of autophagy in African green monkey COS-7 cells at 20 uM by flow cytometry analysis relative to control; format: functional; conditions: Chlorocebus aethiops
COS-7 [4] = assay: Inhibition of autophagy in African green monkey COS-7 cells assessed as effect on LC3 level at upto 40 uM by flow cytometry analysis; format: functional, cell-based; conditions: Chlorocebus aethiops

SMILES	IC50 ([1]; read-out: IC50) [µM]	IC50 ([2]; read-out: IC50) [µM]	inhibition at 20 µM (COS-7 [3]) [%]	inhibition (COS-7 [4])	IC50 [1]	IC50 [2]
Cc1cc(-c2ccc(/C=C3\C(=O)N(c4ccc(C(=O)O)cc4)N=C3C3CC3)s2)c(C(F)(F)F)cc1C	> 33	> 33	–	–	–	–
COC(=O)c1cccc(CN2C(=O)/C(=C/c3ccc(-c4ccc([N+](=O)[O-])cc4)o3)C=C2c2ccccc2)c1	–	–	78.4	–	–	–
O=C(O)c1cccc(CN2C(=O)/C(=C/c3ccc(-c4ccc([N+](=O)[O-])cc4)o3)C=C2c2ccccc2)c1	> 33	21.3	8.1	–	–	–
CCN(CCO)CCCC(C)Nc1ccnc2cc(Cl)ccc12 (centres undefined)	–	–	–	inactive	–	–
CC1=NN(c2ccc(C(=O)O)cc2)C(=O)/C1=C\c1ccc(-c2ccccc2C(F)F)o1	21.4	> 33	–	–	–	–
O=C(O)c1ccc(N2C(=O)/C(=C/c3ccc(-c4ccc(O)cc4)s3)C=C2c2ccccc2)cc1	12	10	98.8	–	–	–
CCCCN1C(=O)/C(=C/c2ccc(-c3ccc([N+](=O)[O-])cc3)o2)C=C1c1ccccc1	–	–	77.8	–	–	–
COc1ccc(-c2ccc(/C=C3\C=C(c4ccccc4)N(c4ccc(C(=O)O)cc4)C3=O)o2)cc1	25	16	96.6	–	–	–
CC1=NN(c2ccc(C(=O)O)cc2)C(=O)/C1=C\c1ccc(-c2cc(C)c(C)cc2[N+](=O)[O-])s1	11.6	11.9	–	–	–	–
CC1=NN(c2ccc(C(=O)O)cc2)C(=O)/C1=C\c1ccc(-c2ccc([N+](=O)[O-])cc2)s1	5.24	6.08	–	–	–	–
CC(=O)Nc1cccc(-c2ccc(/C=C3\C=C(c4ccccc4)N(Cc4ccc(C(=O)O)cc4)C3=O)o2)c1	–	–	20	–	Not Active	Not Active
O=C(O)CCN1C(=O)/C(=C\c2ccc(-c3ccc([N+](=O)[O-])cc3)o2)SC1=S	27	19	–	–	–	–
CC1=NN(c2ccc(-n3cnnn3)cc2)C(=O)/C1=C\c1ccc(-c2cc(C)c(C)cc2[N+](=O)[O-])o1	> 33	> 33	–	–	–	–
O=C(O)CCN1C(=O)/C(=C/c2cc([N+](=O)[O-])ccc2OCc2ccccc2Cl)SC1=S	16	26	–	–	–	–
O=C(O)c1ccc(N2C(=O)/C(=C/c3ccc(-c4cc(F)c(F)c(F)c4)s3)C=C2c2ccccc2)cc1	12	22	97.6	–	–	–
O=C(O)c1ccc(N2C(=O)/C(=C/c3ccc(-c4ccc(Br)cc4)o3)C=C2c2ccccc2)cc1	> 33	19	97.3	–	–	–
COC(=O)c1ccc(CN2C(=O)/C(=C/c3ccc(-c4ccc([N+](=O)[O-])cc4)o3)C=C2c2ccccc2)cc1	–	–	59.8	–	Not Active	Not Active
CC1=NN(c2ccc(C(=O)O)cc2)C(=O)/C1=C\c1ccc(-c2cc(C)c(C)cc2C(F)(F)F)o1	> 33	31.1	–	–	–	–
COC(=O)CCCCN1C(=O)/C(=C/c2ccc(-c3ccc([N+](=O)[O-])cc3)o2)C=C1c1ccccc1	–	–	16.6	–	Not Active	Not Active
CS(=O)(=O)c1ccc(-c2ccc(/C=C3\C=C(c4ccccc4)N(Cc4ccc(C(=O)O)cc4)C3=O)o2)cc1	–	> 33	53.7	–	Not Active	–
O=C1/C(=C/c2ccc(-c3ccc([N+](=O)[O-])cc3)o2)C=C(c2ccccc2)N1Cc1ccc(C(F)(F)F)cc1	–	–	87.7	–	Not Active	Not Active
CCOC(=O)CN1C(=O)/C(=C/c2ccc(-c3ccc([N+](=O)[O-])cc3)o2)C=C1c1ccccc1	–	–	79	–	–	–
CC1=NN(c2ccc(C(=O)O)cc2)C(=O)/C1=C\c1ccc(-c2cccc([N+](=O)[O-])c2)s1	11.2	23	–	–	–	–
O=C(O)c1ccc(N2C(=O)/C(=C/c3ccc(-c4cccnc4)s3)C=C2c2ccccc2)cc1	–	> 33	97.3	–	Not Active	–
O=C(O)c1ccc(N2C(=O)/C(=C/c3ccc(-c4ccc(O)cc4)o3)C=C2c2ccccc2)cc1	> 33	> 33	97.1	–	–	–
NC(=O)c1cccc(-c2ccc(/C=C3\C=C(c4ccccc4)N(Cc4ccc(C(=O)O)cc4)C3=O)o2)c1	–	> 33	8.3	–	Not Active	–
COC(=O)c1ccc(N2C(=O)/C(=C/c3ccc(-c4ccc([N+](=O)[O-])cc4)o3)C=C2c2ccccc2)cc1	–	–	98.9	–	Not Active	Not Active
O=C(O)c1ccc(N2C(=O)/C(=C/c3ccc(-c4ccc(Cl)cc4)o3)C=C2c2ccccc2)cc1	> 33	17	98.2	–	–	–
CCN(CC)CCCC(C)Nc1ccnc2cc(Cl)ccc12 (centres undefined) [CHLOROQUINE]	37	28	–	–	–	–
